Test results published in the supplement of paper PMC11208160.

Test: recombinant UMI read abundance after kanamycin selection (control-corrected) (log10(CPM+1)); higher = more efficient recombination; extreme values may be limits of the assay; sequences stand for … in AGTGCAGAGAAAATCGGCCAGTTTTCTCTGCCTGCAGTCCGCATGCCGTGGGACCCCTTGGGTTCTAACCTGTTGCCTAGATTTATGCAGCGGACTGCCTTTCTCCCAAAGTGATAAACCGG…AGGTTGGTTTCACT; site = the 11-nt donor
Procedure, shortened: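 Sequenced counts of recombinant UMIs were turned into CPM, averaged across replicates and scaled with control-derived factors. The reported figure is log10(CPM+1). Those UMIs, each 12 nt long, tagged donor and donor-binding-loop pairs on a plasmid with a promoterless kanamycin gene, screened as a pool in Escherichia coli with IPTG (0.07 mM) plus kanamycin or without selection.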
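Further: IS621 bridge recombinase in Escherichia coli cells against a fixed T5 target plasmid.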

| Sequence | recombinant UMI read abundance (log10) |
| --- | --- |
| TGAACACCATGGACCGGTTTTCCCGGTAATCCGTATTTGCA (site TGAACACCTTG) | 0.302 |
| TGAACATCATGGACCGGTTTTCCCGGTAATCCGTATTTGGC (site TGAACATCTGC) | 1.37 |
| TGAACGACATGGACCGGTTTTCCCGGTAATCCGTATTTGGA (site TGAACGACTTC) | 0.221 |
| TGAAGAGCATGGACCGGTTTTCCCGGTAATCCGTATTTGCC (site TGAAGAGCTGG) | 1.62 |
| TGAAGCACATGGACCGGTTTTCCCGGTAATCCGTATTTGCG (site TGAAGCACTCG) | 1.18 |
| TGAATCACATGGACCGGTTTTCCCGGTAATCCGTATTTGAA (site CACGCGCCTGA) | 0.00781 |
| TGACATTCATGGACCGGTTTTCCCGGTAATCCGTATTTGCC (site TGACATTCTGG) | 2.22 |
| TGACCCGCATGGACCGGTTTTCCCGGTAATCCGTATTTGAC (site CAGATACCTCC) | 0.00655 |
| TGACGAACATGGACCGGTTTTCCCGGTAATCCGTATTTGGT (site TGACGAACTAC) | 1.16 |
| TGACGCTCATGGACCGGTTTTCCCGGTAATCCGTATTTGCG (site TGACGCTCTCG) | 1.33 |
| TGACTGCCATGGACCGGTTTTCCCGGTAATCCGTATTTGAA (site TGACTGCCTTT) | 0.0135 |
| TGACTGGCATGGACCGGTTTTCCCGGTAATCCGTATTTGTA (site TGACTGGCTTA) | 1.34 |
| TGACTGTCATGGACCGGTTTTCCCGGTAATCCGTATTTGAT (site TGACTGTCTAT) | 0.245 |
| TGACTTTCATGGACCGGTTTTCCCGGTAATCCGTATTTGAG (site TGACTTTCTCT) | 0 |
| TGAGCGTCATGGACCGGTTTTCCCGGTAATCCGTATTTGAC (site TGAGCGTCTGT) | 1.7 |
| TGAGCTACATGGACCGGTTTTCCCGGTAATCCGTATTTGTC (site GCGAACTCTCC) | 0 |
| TGAGGACCATGGACCGGTTTTCCCGGTAATCCGTATTTGGG (site AGAGGACCTCC) | 0.0068 |
| TGAGGACCATGGACCGGTTTTCCCGGTAATCCGTATTTGGG (site CGAGGACCTCC) | 0.00688 |
| TGAGGACCATGGACCGGTTTTCCCGGTAATCCGTATTTGGG (site GGAGGACCTCC) | 0.0165 |
| TGAGGACCATGGACCGGTTTTCCCGGTAATCCGTATTTGGG (site TGAGGACCTCC) | 0.0291 |
| TGAGGACCATGGACCGGTTTTCCCGGTAATCCGTATTTGGT (site TGAGGACCTAC) | 0.00901 |
| TGAGGAGCATGGACCGGTTTTCCCGGTAATCCGTATTTGGT (site TGAGGAGCTAC) | 1.12 |
| TGAGGCTCATGGACCGGTTTTCCCGGTAATCCGTATTTGGT (site TGAGGCTCTAC) | 1.76 |
| TGAGTTTCATGGACCGGTTTTCCCGGTAATCCGTATTTGCT (site TGAGTTTCTAG) | 1.54 |
| TGATACTCATGGACCGGTTTTCCCGGTAATCCGTATTTGCA (site TAATACTCTTG) | 2.38 |

| Sequence | recombinant UMI read abundance (log10) |
| --- | --- |
| TGATACTCATGGACCGGTTTTCCCGGTAATCCGTATTTGCA (site TCATACTCTTG) | 1.29 |
| TGATACTCATGGACCGGTTTTCCCGGTAATCCGTATTTGCA (site TGATACTCTTG) | 2.51 |
| TGATACTCATGGACCGGTTTTCCCGGTAATCCGTATTTGCA (site TTATACTCTTG) | 1.96 |
| TGATCATCATGGACCGGTTTTCCCGGTAATCCGTATTTGCG (site CGATCATCTAG) | 0 |
| TGATCATCATGGACCGGTTTTCCCGGTAATCCGTATTTGCG (site TGATCATCTCG) | 1.27 |
| TGATCGACATGGACCGGTTTTCCCGGTAATCCGTATTTGTT (site AGATCGACTAA) | 0.0146 |
| TGATCGACATGGACCGGTTTTCCCGGTAATCCGTATTTGTT (site CGATCGACTAA) | 0.0214 |
| TGATCGACATGGACCGGTTTTCCCGGTAATCCGTATTTGTT (site GGATCGACTAA) | 0.0286 |
| TGATCGACATGGACCGGTTTTCCCGGTAATCCGTATTTGTT (site TGATCGACTAA) | 0.0254 |
| TGATTATCATGGACCGGTTTTCCCGGTAATCCGTATTTGAA (site TGATTATCTTT) | 1.32 |
| TGCACAGCATGGACCGGTTTTCCCGGTAATCCGTATTTGGC (site TGCACAGCTGC) | 1.05 |
| TGCATATCATGGACCGGTTTTCCCGGTAATCCGTATTTGAC (site TGCATATCTGT) | 1.25 |
| TGCATCCCATGGACCGGTTTTCCCGGTAATCCGTATTTGAC (site TGCATCCCTGT) | 0.448 |
| TGCATGCCATGGACCGGTTTTCCCGGTAATCCGTATTTGGT (site TGCATGCCTAC) | 0.0134 |
| TGCCAATCATGGACCGGTTTTCCCGGTAATCCGTATTTGTG (site TGCCAATCTCA) | 0.0694 |
| TGCCACACATGGACCGGTTTTCCCGGTAATCCGTATTTGAG (site TGCCACACTCT) | 0.305 |
| TGCCCCGCATGGACCGGTTTTCCCGGTAATCCGTATTTGTT (site TGCCCCGCTAA) | 0.0107 |
| TGCCGATCATGGACCGGTTTTCCCGGTAATCCGTATTTGGT (site TGCCGATCTAC) | 0 |
| TGCCGCTCATGGACCGGTTTTCCCGGTAATCCGTATTTGGA (site TGCCGCTCTTC) | 0.324 |
| TGCCGGTCATGGACCGGTTTTCCCGGTAATCCGTATTTGCA (site TGCCGGTCTTG) | 1.45 |
| TGCCGTTCATGGACCGGTTTTCCCGGTAATCCGTATTTGAT (site TGCCGTTCTAT) | 0 |
| TGCCTCGCATGGACCGGTTTTCCCGGTAATCCGTATTTGAT (site TGCCTCGCTAT) | 0.0124 |
| TGCGTCACATGGACCGGTTTTCCCGGTAATCCGTATTTGCC (site TGCGTCACTGG) | 1.97 |
| TGCTAATCATGGACCGGTTTTCCCGGTAATCCGTATTTGCT (site TGCTAATCTAG) | 1.08 |
| TGCTAGGCATGGACCGGTTTTCCCGGTAATCCGTATTTGGG (site TGCTAGGCTAC) | 0.0327 |

| Sequence | recombinant UMI read abundance (log10) |
| --- | --- |
| TGCTAGGCATGGACCGGTTTTCCCGGTAATCCGTATTTGGG (site TGCTAGGCTCC) | 0.00935 |
| TGCTAGGCATGGACCGGTTTTCCCGGTAATCCGTATTTGGG (site TGCTAGGCTGC) | 0 |
| TGCTAGGCATGGACCGGTTTTCCCGGTAATCCGTATTTGGG (site TGCTAGGCTTC) | 0.00914 |
| TGCTAGTCATGGACCGGTTTTCCCGGTAATCCGTATTTGAC (site TGCTAGTCTGT) | 0 |
| TGCTCAACATGGACCGGTTTTCCCGGTAATCCGTATTTGGC (site TGCTCAACTGC) | 0 |
| TGCTCATCATGGACCGGTTTTCCCGGTAATCCGTATTTGCT (site CGATCATCTAG) | 0 |
| TGCTCATCATGGACCGGTTTTCCCGGTAATCCGTATTTGCT (site TGCTCATCTAG) | 1.08 |
| TGCTCCACATGGACCGGTTTTCCCGGTAATCCGTATTTGGA (site TGCTCCACTTC) | 0 |
| TGCTCCCCATGGACCGGTTTTCCCGGTAATCCGTATTTGGT (site TGCTCCCCTAC) | 0.0121 |
| TGCTGCGCATGGACCGGTTTTCCCGGTAATCCGTATTTGTG (site TGCTGCGCTCA) | 0.0115 |
| TGCTGGGCATGGACCGGTTTTCCCGGTAATCCGTATTTGGT (site TGCTAGGCTAC) | 0.109 |
| TGCTGGGCATGGACCGGTTTTCCCGGTAATCCGTATTTGGT (site TGCTCGGCTAC) | 0.0121 |
| TGCTGGGCATGGACCGGTTTTCCCGGTAATCCGTATTTGGT (site TGCTGGGCTAC) | 0.306 |
| TGCTGGGCATGGACCGGTTTTCCCGGTAATCCGTATTTGGT (site TGCTTGGCTAC) | 0.0187 |
| TGCTGTCCATGGACCGGTTTTCCCGGTAATCCGTATTTGTT (site TGCTGTCCTAA) | 0.00448 |
| TGGAAGACATGGACCGGTTTTCCCGGTAATCCGTATTTGCG (site AGGAAGACTTG) | 0 |
| TGGAAGACATGGACCGGTTTTCCCGGTAATCCGTATTTGCG (site TGGAAGACTCG) | 2.05 |
| TGGACAACATGGACCGGTTTTCCCGGTAATCCGTATTTGTG (site TGGACAACTCA) | 0.209 |
| TGGACCTCATGGACCGGTTTTCCCGGTAATCCGTATTTGAG (site TGGACCTCTCT) | 0.96 |
| TGGATCACATGGACCGGTTTTCCCGGTAATCCGTATTTGCT (site TGGATCACTAG) | 1.72 |
| TGGCAACCATGGACCGGTTTTCCCGGTAATCCGTATTTGCT (site TGGCAACCTAG) | 0 |
| TGGCAAGCATGGACCGGTTTTCCCGGTAATCCGTATTTGGC (site TGGCAAGCTGC) | 0.585 |
| TGGCATACATGGACCGGTTTTCCCGGTAATCCGTATTTGTA (site TGGCATACTTA) | 0.751 |
| TGGCCGGCATGGACCGGTTTTCCCGGTAATCCGTATTTGGA (site TGGCCGGCTAC) | 0.0385 |
| TGGCCGGCATGGACCGGTTTTCCCGGTAATCCGTATTTGGA (site TGGCCGGCTCC) | 0.0416 |
